Data: patent US20250339567A1, “COMPOUNDS WITH IMPROVED PHARMACOKINETICS FOR IMAGING AND THERAPY OF CANCER” (priority 2019, published 2025)
Where two headings read alike, the source gives them in different places. Starred links: 1 amine or outer side, 2 acyl side, 3 side chain; linkers in the order of their positions; H or OH if unused. Non-standard residues stand in square brackets, D forms with d. Residues, ends and D or L forms follow the SMILES beside them. *: point of attachment. X4 = O=C(O)CN1CCN(CC(=O)O)CCN(CC(=O)NCc2ccc(NC(=O)COCC(=O)*)cc2)CCN(CC(=O)O)CC1; DOTA = O=C(O)CN1CCN(CC(=O)O)CCN(CC(=O)*)CCN(CC(=O)O)CC1; Sta = CC(C)C[C@H](N)[C@@H](O)CC(=O)O; Bta = N[C@@H](Cc1csc2ccccc12)C(=O)O; X1 = O=C(CN1CCC(N[*:1])CC1)[*:2]; NHCH(iBu)2 = CC(C)CC(CC(C)C)N*; hSer = N[C@@H](CCO)C(=O)O

Key:
GRPR = target: T1, GRPR (Homo sapiens, UniProt P30550); assay: Determination of GRPR affinity (IC50), competition with [D-3-[125I]I-Tyr6]MJ9 on PC-3 cells; type: binding
T1 construct: endogenous in cells; host or cells: PC-3 cells
Protocol: The reference ligand for IC50 studies ([D-3-[^125I]I-Tyr^6]MJ9) is prepared according to a previously published procedure. Briefly, 0.2 mg of [D-Tyr^6]MJ9 are dissolved in 20 μL Tracepur water and 280 μL TRIS buffer (25 mm TRIS HCl, 0.4 M NaCl, pH=7.9). After addition of the solution to a vial containing 150 μg Iodo-Gen® (1,3,4,6-Tetrachloro-3α,6α-diphenylglycouril, surface-bound), 5.0 μL (16 MBq) [^125I]Nal(74 TBq/mmol, 3.1 GBq/mL, 40 mM NaOH, Hartmann Analytic, Braunschweig, Germany) are added.
The GRPR-positive PC-3 cells are cultured in Dublecco modified Eagle medium/Nutrition Mixture F-12 with Glutamax-I (1:1) (Invitrigon), supplemented with 10% fetal calf serum and maintained at 37° C. in a humidified 5% CO2 atmosphere.
After removal of the culture medium, the cells are washed once with 500 μL of HBSS (Hank's balanced salt solution, Biochrom, Berlin, Germany, with addition of 1% bovine serum albumin (BSA)) and left in 200 μL HBSS (1% BSA) for 9 min at room temperature for equilibration. Next, 25 μL per well of solutions, containing either HBSS (1% BSA) as control or the respective ligand in increasing concentration (10^−10 M-10^−4 M in HBSS), are added with subsequent addition of 25 μL of [D-3-[^125I]I-Tyr^6]MJ9 (2.0 nM) in HBSS (1% BSA).
All experiments are performed in triplicate for each concentration. After 2 h incubation at room temperature, the experiment is terminated by removal of the medium and consecutive rinsing with 300 μL of HBSS. The media of both steps are combined in one fraction and represent the amount of free radiolabeled reference. Afterwards, the cells are lysed with 300 μL of 1 M NaOH for at least 15 min and united with the 300 μL NaOH of the following washing step. Quantification of bound and free radiolabeled reference is accomplished in a γ-counter.
IC50 determination for each ligand was repeated twice.

[1] = n-Octanol-PBS distribution coefficient, log D7.4; type: physicochemical; settings: 99mTc-labeled; n-octanol/PBS pH 7.4
Protocol: Approximately 1 MBq of the labeled tracer was dissolved in 1 mL of a 1:1 mixture (v/v) of phosphate buffered saline (PBS, pH=7.4) and n-octanol in an Eppendorf tube. After vigorous mixing of the suspension for 3 min at room temperature, the vial was centrifuged at 9000 rpm for 5 min (Biofuge 15, Heraus Sepatech, Osterode, Germany) and 200 μL aliquots of both layers were measured in a γ-counter. The experiment was repeated at least four times.

[2] = Plasma studies: metabolic stability in vitro in human plasma (radio RP-HPLC); type: in vitro ADME; settings: Table 1C; 177Lu-labeled, 37° C., 72 ± 2 h; in % (unit assumed)
Protocol: Metabolic stability in vitro was determined applying a procedure published by Linder et al. that was slightly modified. Immediately after labeling, human (200 μL) or murine (100 μL) plasma was added and the mixture was incubated at 37° C. for 72±2 h (or 6±0.5 h). Proteins were precipitated by treatment with ice-cold EtOH (150 μL [human], 100 μL [murine]) and ice-cold MeCN (450 μL [human], 300 μL [murine]), followed by centrifugation for 20 min at 13000 rpm. The supernatants were decanted and further analyzed using radio RP-HPLC. […]

[3] = read-out: IC50 [nM] ± SD (n = 3), ^177Lu-labeled, Table 1C, GRPR affinity

T1 sequence (P30550 whole entry): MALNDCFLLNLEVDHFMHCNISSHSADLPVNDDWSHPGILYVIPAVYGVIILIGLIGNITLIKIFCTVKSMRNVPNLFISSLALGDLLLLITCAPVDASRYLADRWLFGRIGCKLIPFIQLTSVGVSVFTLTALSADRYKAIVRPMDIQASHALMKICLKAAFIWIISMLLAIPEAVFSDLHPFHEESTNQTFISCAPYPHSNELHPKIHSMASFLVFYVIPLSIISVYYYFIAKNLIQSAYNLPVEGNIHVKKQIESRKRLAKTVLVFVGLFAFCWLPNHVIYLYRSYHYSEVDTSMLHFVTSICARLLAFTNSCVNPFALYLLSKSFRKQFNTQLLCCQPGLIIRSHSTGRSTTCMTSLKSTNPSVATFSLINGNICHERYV

| SMILES | IC50 (GRPR; [3]) [nM] | Amount of intact tracer after incubation in human plasma for 72 ± 2 h (n = 2) [2] | also measured |
| --- | --- | --- | --- |
| CC(C)C[C@H](NC(=O)C[C@H](O)[C@H](CC(C)C)NC(=O)[C@H](Cc1c[nH]cn1)NC(=O)CNC(=O)[C@@H](NC(=O)[C@H](C)NC(=O)[C@H](Cc1c[nH]c2ccccc12)NC(=O)[C@H](CCC(N)=O)NC(=O)[C@@H](Cc1ccccc1)NC(=O)CN1CCC(NC(=O)[C@H](CC(=O)O)NC(=O)C(CNCCN)CNCCN)CC1)C(C)C)C(N)=O [Ligand N4-asp-MJ9] |  |  | IC50 (GRPR; IC50 [nM] ± SD (n = 3), Table 5, non-labeled N4 ligands, [D-3-[125I]I-Tyr6]MJ9 (c = 0.2 nM), 2 h, r.t.): 3.73 ± 0.78 nM; log D7.4 (n = 6), ^99mTc-labeled [1]: −1.86 ± 0.03 |
| CC(C)CC(CC(C)C)NC(=O)[C@H](Cc1c[nH]cn1)NC(=O)CNC(=O)[C@@H](NC(=O)[C@H](C)NC(=O)[C@H](Cc1csc2ccccc12)NC(=O)[C@H](CCC(N)=O)NC(=O)[C@@H](Cc1ccccc1)NC(=O)COCC(=O)Nc1ccc(CNC(=O)CN2CCN(CC(=O)O)CCN(CC(=O)O)CCN(CC(=O)O)CC2)cc1)C(C)C [[Bta^8]NeoBOMB1] (X4-[dF]Q[Bta]AVGH-{NHCH(iBu)2}; N-terminus and C-terminus assumed) | 13 ± 3 | 36.2 ± 3.8 |  |
| CC(C)CC(CC(C)C)NC(=O)[C@H](Cc1c[nH]cn1)NC(=O)CNC(=O)[C@@H](NC(=O)[C@H](C)NC(=O)[C@H](Cc1c[nH]c2ccccc12)NC(=O)[C@H](CCO)NC(=O)[C@@H](Cc1ccccc1)NC(=O)COCC(=O)Nc1ccc(CNC(=O)CN2CCN(CC(=O)O)CCN(CC(=O)O)CCN(CC(=O)O)CC2)cc1)C(C)C [[Hse^7]NeoBOMB1] (X4-[dF][hSer]WAVGH-{NHCH(iBu)2}; N-terminus and C-terminus assumed) | 8.3 ± 0.7 | 57.4 ± 2.1 |  |
| CC(C)C[C@H](NC(=O)C[C@H](O)[C@H](CC(C)C)NC(=O)[C@H](Cc1c[nH]cn1)NC(=O)CNC(=O)[C@@H](NC(=O)[C@H](C)NC(=O)[C@H](Cc1csc2ccccc12)NC(=O)[C@H](CCC(N)=O)NC(=O)[C@@H](Cc1ccccc1)NC(=O)CN1CCC(NC(=O)CN2CCN(CC(=O)O)CCN(CC(=O)O)CCN(CC(=O)O)CC2)CC1)C(C)C)C(N)=O [[^natGa]DOTA-[Bta^8]MJ9, metal not drawn] ({DOTA}-[X1][dF]Q[Bta]AVGH[Sta]L-NH2) |  |  | IC50 (GRPR; IC50 ± SD (n = 3), Table 3, [D-3-[125I]I-Tyr6]MJ9 (c = 0.2 nM), 2 h, r.t., HBSS + 1% BSA): 3.06 ± 0.15 nM |
| CC(C)C[C@H](NC(=O)C[C@H](O)[C@H](CC(C)C)NC(=O)[C@H](Cc1c[nH]cn1)NC(=O)CNC(=O)[C@@H](NC(=O)[C@H](C)NC(=O)[C@H](Cc1c[nH]c2ccccc12)NC(=O)[C@H](CCO)NC(=O)[C@@H](Cc1ccccc1)NC(=O)CN1CCC(NC(=O)CN2CCN(CC(=O)O)CCN(CC(=O)O)CCN(CC(=O)O)CC2)CC1)C(C)C)C(N)=O [[^natGa]DOTA-[Hse^7]MJ9, metal not drawn] |  |  | IC50 (GRPR; read-out: IC50 ± SD (n = 3), Table 3, [D-3-[125I]I-Tyr6]MJ9 (c = 0.2 nM), 2 h, r.t., HBSS + 1% BSA): 12.2 ± 0.2 nM |
| CC(C)CC(CC(C)C)NC(=O)[C@H](Cc1c[nH]cn1)NC(=O)CNC(=O)[C@@H](NC(=O)[C@H](C)NC(=O)[C@](C)(Cc1c[nH]c2ccccc12)NC(=O)[C@H](CCC(N)=O)NC(=O)[C@@H](Cc1ccccc1)NC(=O)COCC(=O)Nc1ccc(CNC(=O)CN2CCN(CC(=O)O)CCN(CC(=O)O)CCN(CC(=O)O)CC2)cc1)C(C)C [[α-Me-Trp^8]NeoBOMB1] | 6.8 ± 1.2 | 70.7 ± 2.8 |  |
